Laboratory results reported in patent US10160747B2, “Compounds and methods for kinase modulation, and indications therefor” (Plexxikon Inc., priority 2016, dated 2018).

Legend:
FLT3-ITD = molecular target: T1, FLT3-ITD (Homo sapiens, UniProt P36888); assay: FLT3-ITD recombinant enzyme kinase assay (AlphaScreen); type: biochemical; settings: 8 pt; read-out: FLT3_ITD 8 pt: IC50
T1 sequence (P36888 1-993): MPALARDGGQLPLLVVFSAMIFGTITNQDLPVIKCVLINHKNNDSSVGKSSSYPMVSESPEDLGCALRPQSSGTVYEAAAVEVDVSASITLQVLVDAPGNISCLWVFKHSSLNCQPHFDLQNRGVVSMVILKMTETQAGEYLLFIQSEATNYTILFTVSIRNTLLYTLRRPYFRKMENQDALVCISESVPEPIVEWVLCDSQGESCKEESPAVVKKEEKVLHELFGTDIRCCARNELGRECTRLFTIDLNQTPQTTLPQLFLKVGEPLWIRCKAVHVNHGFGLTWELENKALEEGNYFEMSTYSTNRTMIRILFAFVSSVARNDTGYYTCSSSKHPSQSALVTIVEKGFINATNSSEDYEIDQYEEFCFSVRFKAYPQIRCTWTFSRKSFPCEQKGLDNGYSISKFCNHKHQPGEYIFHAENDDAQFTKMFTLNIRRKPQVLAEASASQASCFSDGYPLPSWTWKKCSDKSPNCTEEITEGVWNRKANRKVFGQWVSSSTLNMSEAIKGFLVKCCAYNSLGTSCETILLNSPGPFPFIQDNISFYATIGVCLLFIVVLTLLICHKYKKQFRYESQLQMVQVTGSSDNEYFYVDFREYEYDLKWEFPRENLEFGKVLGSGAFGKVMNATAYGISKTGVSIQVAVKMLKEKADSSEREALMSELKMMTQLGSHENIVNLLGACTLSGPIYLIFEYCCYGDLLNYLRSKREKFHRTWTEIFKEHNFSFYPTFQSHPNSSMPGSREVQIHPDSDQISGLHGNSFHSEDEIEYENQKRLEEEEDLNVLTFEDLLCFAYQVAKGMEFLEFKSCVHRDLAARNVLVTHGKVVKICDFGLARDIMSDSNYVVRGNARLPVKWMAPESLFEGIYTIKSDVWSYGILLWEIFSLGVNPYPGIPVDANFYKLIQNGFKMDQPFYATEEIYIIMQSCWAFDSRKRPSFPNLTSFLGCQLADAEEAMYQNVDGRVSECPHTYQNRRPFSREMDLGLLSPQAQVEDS
Protocol: (§1) In order to determine the effect of compounds on FLT3 catalytic activity, kinase assays using recombinant enzymes and AlphaScreen® technology have been established. The catalytic activity of c-kit activity was also measured to determine selectivity of the compounds. When the kinases are catalytically active, they phosphorylate a biotinylated peptide substrate on tyrosine residues. Using AlphaScreen® technology, the ability of the compounds to affect the catalytic activity of the kinases can be measured quantitatively. The peptide substrate is immobilized by the AlphaScreen® Streptavidin Donor beads and, upon phosphorylation by a tyrosine kinase, can bind to AlphaScreen® Anti-Phosphotyrosine (PY20) Acceptor beads. Upon excitation of these beads with laser light at 680 nm, singlet oxygen is produced. This singlet oxygen is rapidly quenched, unless the AlphaScreen® Anti-Phosphotyrosine (PY20) Acceptor beads are in close proximity, in which case a proximity signal can be measured at 580 nm. In the presence of catalytic activity, there is a very strong proximity signal. Selective kinase inhibitors affect a decrease in this proximity signal through a decrease in tyrosine phosphorylation of the peptide substrate.
(§2) The assay was performed as summarized below.
(§3) Poly (Glu4-Tyr) Peptide, biotin conjugate [Biotin-GG(EEEEY)10EE] (SEQ ID NO: 4)
(§4) Final concentration=30 nM
(§5) Adenosine Triphosphate (ATP)
(§6) Final concentration for IC50 determination=10 μM (FLT3-D835Y or FLT3-ITD) or 100 μM (c-KIT)
(§7) AlphaScreen® Phosphotyrosine (PY20) Assay Kit
(§8) Final concentration=10 μg/mL
(§9) Dilute compounds in DMSO to 20× final concentration.
(§10) Add 1 μL of compound to each well of 384 well reaction plate (Perkin Elmer #6005359).
(§11) Mix enzyme and Poly (Glu4-Tyr) Peptide substrate at 1.33× final concentration in assay buffer.
(§12) Mix ATP at 5× final concentration in assay buffer.
(§13) Add 15 μL enzyme/substrate mixture to the reaction plate.
(§14) Add 4 μL of ATP to the reaction plate.
(§15) Mix Streptavidin Donor beads at 6× final concentration in Stop/Detection buffer.
(§16) Add 5 μL Streptavidin Donor beads to the reaction plate. Centrifuge 1 minute, shake to mix, and incubate at room temperature for 20 minutes.
(§17) Mix Anti-Phosphotyrosine (PY20) Acceptor beads at 6× final concentration in Stop/Detection buffer.
(§18) Add 5 μL Anti-Phosphotyrosine (PY20) beads to the reaction plate.
(§19) Centrifuge 1 minute, shake to mix, and incubate at room temperature for 60 minutes.
(§20) Read plate on Wallac EnVision™ 2103 Multilabel Reader.

FLT3-D835Y = molecular target: T2, FLT3-D835Y (Homo sapiens, UniProt P36888, D835Y); assay: FLT3-D835Y recombinant enzyme kinase assay (AlphaScreen); type: biochemical; settings: 8 pt, GMean
T2 construct: purchased Invitrogen PV3967
T2 sequence (P36888 27-993 D835Y): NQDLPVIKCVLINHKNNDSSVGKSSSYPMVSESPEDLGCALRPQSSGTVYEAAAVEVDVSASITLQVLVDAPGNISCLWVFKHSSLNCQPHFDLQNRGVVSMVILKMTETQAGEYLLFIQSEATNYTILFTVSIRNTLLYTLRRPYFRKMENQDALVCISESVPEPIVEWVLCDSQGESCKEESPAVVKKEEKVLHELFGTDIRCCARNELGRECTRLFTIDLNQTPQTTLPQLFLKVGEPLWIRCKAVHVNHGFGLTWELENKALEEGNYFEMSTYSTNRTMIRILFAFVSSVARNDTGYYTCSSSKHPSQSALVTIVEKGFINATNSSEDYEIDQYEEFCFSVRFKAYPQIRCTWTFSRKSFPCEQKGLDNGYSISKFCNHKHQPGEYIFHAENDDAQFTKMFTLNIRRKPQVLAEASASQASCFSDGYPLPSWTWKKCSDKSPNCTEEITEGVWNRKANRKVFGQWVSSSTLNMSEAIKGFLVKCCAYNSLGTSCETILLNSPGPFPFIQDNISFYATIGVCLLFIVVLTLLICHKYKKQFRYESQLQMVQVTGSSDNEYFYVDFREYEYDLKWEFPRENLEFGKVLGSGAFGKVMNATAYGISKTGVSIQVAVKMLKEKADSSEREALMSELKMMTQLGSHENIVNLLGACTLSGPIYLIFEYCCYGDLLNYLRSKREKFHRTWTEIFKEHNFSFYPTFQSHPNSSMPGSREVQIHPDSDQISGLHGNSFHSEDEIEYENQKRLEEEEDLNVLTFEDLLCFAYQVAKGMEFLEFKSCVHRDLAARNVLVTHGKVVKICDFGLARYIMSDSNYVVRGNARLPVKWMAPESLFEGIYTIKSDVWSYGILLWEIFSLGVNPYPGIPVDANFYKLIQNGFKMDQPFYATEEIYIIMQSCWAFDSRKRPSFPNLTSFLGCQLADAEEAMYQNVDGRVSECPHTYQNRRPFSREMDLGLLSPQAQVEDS
Protocol: as §1, §2, §3, §4, §5, §6, §7, §8, §9, §10, §11, §12, §13, §14, §15, §16, §17, §18, §19, §20

Cc1cc(-c2cnc3[nH]c(-c4ccccc4)cc3c2)ccc1CC(=O)Nc1cccc(C(F)(F)F)c1 [Compound P-0001, 2-[2-methyl-4-(2-phenyl-1H-pyrrolo[2,3-b]pyridin-5-yl)phenyl]-N-[3-(trifluoromethyl)phenyl]acetamide]
IC50 (FLT3-ITD): 0.0001 to 10 µM

O=C(Cc1ccc(-c2cnc3[nH]c(-c4ccccc4)cc3c2)c(F)c1)Nc1cccc(C(F)(F)F)c1 [Compound P-0003, 2-[3-fluoro-4-(2-phenyl-1H-pyrrolo[2,3-b]pyridin-5-yl)phenyl]-N-[3-(trifluoromethyl)phenyl]acetamide]
IC50 (FLT3-ITD): 0.0001 to 10 µM | IC50 (FLT3-D835Y): 0.0001 to 10 µM

O=C(Cc1ccc(-c2cnc3[nH]c(-c4ccccc4)cc3c2)cc1F)Nc1ccnc(C(F)(F)F)c1 [Compound P-0004, 2-[2-fluoro-4-(2-phenyl-1H-pyrrolo[2,3-b]pyridin-5-yl)phenyl]-N-[2-(trifluoromethyl)-4-pyridyl]acetamide]
IC50 (FLT3-ITD): 0.0001 to 10 µM | IC50 (FLT3-D835Y): 0.0001 to 10 µM

O=C(Cc1ccc(-c2cnc3[nH]c(-c4ccccc4)cc3c2)cn1)Nc1ccnc(C(F)(F)F)c1 [Compound P-0005, 2-[5-(2-phenyl-1H-pyrrolo[2,3-b]pyridin-5-yl)-2-pyridyl]-N-[2-(trifluoromethyl)-4-pyridyl]acetamide]
IC50 (FLT3-ITD): 0.0001 to 10 µM | IC50 (FLT3-D835Y): 0.0001 to 10 µM

Cc1ncc(NC(=O)Cc2ccc(-c3cnc(Nc4cnn(C)c4)nc3)cc2F)cc1C(F)(F)F [Compound P-0091, 2-[2-fluoro-4-[2-[(1-methylpyrazol-4-yl)amino]pyrimidin-5-yl]phenyl]-N-[6-methyl-5-(trifluoromethyl)-3-pyridyl]acetamide]
IC50 (FLT3-ITD): 0.0001 to 10 µM | IC50 (FLT3-D835Y): 0.0001 to 10 µM

Cn1cc(Nc2ncc(-c3ccc(CC(=O)Nc4cnc(Cl)c(C(F)(F)F)c4)c(F)c3)cn2)cn1 [Compound P-0092, N-[6-chloro-5-(trifluoromethyl)-3-pyridyl]-2-[2-fluoro-4-[2-[(1-methylpyrazol-4-yl)amino]pyrimidin-5-yl]phenyl]acetamide]
IC50 (FLT3-ITD): 0.0001 to 10 µM | IC50 (FLT3-D835Y): 0.0001 to 10 µM

CC(C)c1cc(NC(=O)Cc2ccc(-c3cnc(Nc4cnn(C)c4)nc3)cc2F)ccn1 [Compound P-0094, 2-[2-fluoro-4-[2-[(1-methylpyrazol-4-yl)amino]pyrimidin-5-yl]phenyl]-N-(2-isopropyl-4-pyridyl)acetamide]
IC50 (FLT3-ITD): 0.0001 to 10 µM | IC50 (FLT3-D835Y): 0.0001 to 10 µM

Cn1cc(Nc2ncc(-c3ccc(CC(=O)Nc4ccc(C(F)(F)F)nc4)cc3)cn2)cn1 [Compound P-0095, 2-[4-[2-[(1-methylpyrazol-4-yl)amino]pyrimidin-5-yl]phenyl]-N-[6-(trifluoromethyl)-3-pyridyl]acetamide]
IC50 (FLT3-ITD): 0.0001 to 10 µM | IC50 (FLT3-D835Y): 0.0001 to 10 µM

Cn1cnc(Nc2ncc(-c3ccc(CC(=O)Nc4cc(C(F)(F)F)ccn4)c(F)c3)cn2)c1 [Compound P-0096, 2-[2-fluoro-4-[2-[(1-methylimidazol-4-yl)amino]pyrimidin-5-yl]phenyl]-N-[4-(trifluoromethyl)-2-pyridyl]acetamide]
IC50 (FLT3-ITD): 0.0001 to 10 µM | IC50 (FLT3-D835Y): 0.0001 to 10 µM

Cn1cc(Nc2ncc(-c3ccc(CC(=O)Nc4ccnc(C5CC5)c4)cc3)cn2)cn1 [Compound P-0097, N-(2-cyclopropyl-4-pyridyl)-2-[4-[2-[(1-methylpyrazol-4-yl)amino]pyrimidin-5-yl]phenyl]acetamide]
IC50 (FLT3-ITD): 0.0001 to 10 µM | IC50 (FLT3-D835Y): 0.0001 to 10 µM

Cn1cc(Nc2ncc(-c3ccc(CC(=O)Nc4ccnc(C5CC5)c4)c(F)c3)cn2)cn1 [Compound P-0098, N-(2-cyclopropyl-4-pyridyl)-2-[2-fluoro-4-[2-[(1-methylpyrazol-4-yl)amino]pyrimidin-5-yl]phenyl]acetamide]
IC50 (FLT3-ITD): 0.0001 to 10 µM | IC50 (FLT3-D835Y): 0.0001 to 10 µM

Cn1cc(Nc2ncc(-c3ccc(CC(=O)NCc4cccnc4)cc3)cn2)cn1 [Compound P-0132, 2-[4-[2-[(1-methylpyrazol-4-yl)amino]pyrimidin-5-yl]phenyl]-N-(3-pyridylmethyl)acetamide]
IC50 (FLT3-ITD): 0.0001 to 10 µM

COc1cc(NC(=O)Cc2ccc(-c3cnc(Nc4cnn(C)c4)nc3)cc2)ccn1 [Compound P-0153, N-(2-methoxy-4-pyridyl)-2-[4-[2-[(1-methylpyrazol-4-yl)amino]pyrimidin-5-yl]phenyl]acetamide]
IC50 (FLT3-ITD): 0.0001 to 10 µM

Cn1cc(Nc2ncc(-c3ccc(CC(=O)NCc4ncccc4C(F)(F)F)cc3)cn2)cn1 [Compound P-0159, 2-[4-[2-[(1-methylpyrazol-4-yl)amino]pyrimidin-5-yl]phenyl]-N-[[3-(trifluoromethyl)-2-pyridyl]methyl]acetamide]
IC50 (FLT3-ITD): 0.0001 to 10 µM

COc1ccccc1CNC(=O)Cc1ccc(-c2cnc(Nc3cnn(C)c3)nc2)cc1 [Compound P-0160, N-[(2-methoxyphenyl)methyl]-2-[4-[2-[(1-methylpyrazol-4-yl)amino]pyrimidin-5-yl]phenyl]acetamide]
IC50 (FLT3-ITD): 0.0001 to 10 µM

COc1ccc(-c2cc3cc(-c4ccc(CC(=O)Nc5cc(C(F)(F)F)ccn5)cc4F)cnc3[nH]2)cn1 [Compound P-0191, 2-[3-fluoro-4-[2-(6-methoxy-3-pyridyl)-1H-pyrrolo[2,3-b]pyridin-5-yl]phenyl]-N-[4-(trifluoromethyl)-2-pyridyl]acetamide]
IC50 (FLT3-ITD): 0.0001 to 10 µM

N#Cc1cc(-c2cc3cc(-c4ccc(CC(=O)Nc5cncc(C(F)(F)F)c5)cc4F)cnc3[nH]2)ccn1 [Compound P-0199, 2-[4-[2-(2-cyano-4-pyridyl)-1H-pyrrolo[2,3-b]pyridin-5-yl]-3-fluoro-phenyl]-N-[5-(trifluoromethyl)-3-pyridyl]acetamide]
IC50 (FLT3-ITD): 0.0001 to 10 µM
